Measurements: ChEMBL document CHEMBL1131882, “Unsymmetrical cyclic ureas as HIV-1 protease inhibitors: novel biaryl indazoles as P2/P2' substituents” (Bioorg Med Chem Lett, 1999)
pKi: −log10 of the molar value.

Legend:
[1] = target: Human immunodeficiency virus type 1 protease (Human immunodeficiency virus 1) (UniProt Q72874); test: Inhibitory activity against HIV -1 Protease in whole cell assay
[2] = target: Human immunodeficiency virus type 1 protease (Human immunodeficiency virus 1, UniProt Q72874); test: Binding affinity for HIV -1 Protease
[3] = test system: Human immunodeficiency virus 1; test: Inhibitory activity against Ritonavir resistant virus mutant strain; assay type: functional

Row | SMILES | IC90 [1] [nM] | pKi [2] | IC90 [3] [nM]
1 | Nc1cccc(CN2C(=O)N(Cc3ccc4[nH]nc(-c5ccc(F)cc5)c4c3)[C@H](Cc3ccccc3)[C@H](O)[C@@H](O)[C@H]2Cc2ccccc2)c1 | 39 | 9.52 | > 5000
2 | COc1cccc(-c2n[nH]c3ccc(CN4C(=O)N(Cc5cccc(N)c5)[C@H](Cc5ccccc5)[C@H](O)[C@@H](O)[C@H]4Cc4ccccc4)cc23)c1 | – | 9.62 | –
3 | Nc1cccc(CN2C(=O)N(Cc3ccc4[nH]ncc4c3)[C@H](Cc3ccccc3)[C@H](O)[C@@H](O)[C@H]2Cc2ccccc2)c1 | 11 | – | 825
4 | COc1ccc(-c2[nH]nc3ccc(CN4C(=O)N(Cc5cccc(N)c5)[C@H](Cc5ccccc5)[C@H](O)[C@@H](O)[C@H]4Cc4ccccc4)cc23)cc1 | 14 | 9.59 | 4190
5 | Nc1cccc(CN2C(=O)N(Cc3ccc4[nH]nc(-c5ccsc5)c4c3)[C@H](Cc3ccccc3)[C@H](O)[C@@H](O)[C@H]2Cc2ccccc2)c1 | 32 | 9.89 | > 5000
6 | Nc1cccc(CN2C(=O)N(Cc3ccc4[nH]nc(-c5ccc(C(F)(F)F)cc5)c4c3)[C@H](Cc3ccccc3)[C@H](O)[C@@H](O)[C@H]2Cc2ccccc2)c1 | 255 | 9.60 | –
7 | Nc1cccc(CN2C(=O)N(Cc3ccc4[nH]nc(-c5cc[nH]n5)c4c3)[C@H](Cc3ccccc3)[C@H](O)[C@@H](O)[C@H]2Cc2ccccc2)c1 | 108 | 10.24 | 525
8 | CC(C)c1nc(CN(C)C(=O)N[C@H](C(=O)N[C@@H](Cc2ccccc2)C[C@H](O)[C@H](Cc2ccccc2)NC(=O)OCc2cncs2)C(C)C)cs1 [RITONAVIR] | – | – | 4500
9 | Nc1cccc(CN2C(=O)N(Cc3ccc4[nH]nc(-c5cccs5)c4c3)[C@H](Cc3ccccc3)[C@H](O)[C@@H](O)[C@H]2Cc2ccccc2)c1 | 31 | 9.74 | > 5000
10 | Nc1cccc(CN2C(=O)N(Cc3ccc4[nH]nc(-c5cccc(C(F)(F)F)c5)c4c3)[C@H](Cc3ccccc3)[C@H](O)[C@@H](O)[C@H]2Cc2ccccc2)c1 | 39 | 9.21 | –
11 | COc1cccc(-c2[nH]nc3ccc(CN4C(=O)N(Cc5cccc(N)c5)[C@H](Cc5ccccc5)[C@H](O)[C@@H](O)[C@H]4Cc4ccccc4)cc23)c1 | 33 | – | 3140
12 | Nc1cccc(CN2C(=O)N(Cc3ccc4[nH]nc(-c5cccc(N)c5)c4c3)[C@H](Cc3ccccc3)[C@H](O)[C@@H](O)[C@H]2Cc2ccccc2)c1 | 30 | 10.05 | 1300
